From patent US20250270172A1, “Pyrimidine Derivatives As Modulators of the 5-HT2A Serotonin Receptor Useful For The Treatment of Disorders Related Thereto” (Arena Pharmaceuticals, Inc., priority 2020, published 2025) come the findings set out here.

Assay [1] deals with T1, 5-HT2A (Homo sapiens (Human), UniProt P28223). Description: Radioligand binding assay, [^3H]5-HT competition, 5-HT2A. As to conditions: [^3H]5-HT radioligand, membranes of HEK293 cells expressing recombinant 5-HT2A; Ki from IC50 by Cheng-Prusoff; read-out: 5-HT2A serotonin binding Ki value.
T1 sequence (P28223 whole entry): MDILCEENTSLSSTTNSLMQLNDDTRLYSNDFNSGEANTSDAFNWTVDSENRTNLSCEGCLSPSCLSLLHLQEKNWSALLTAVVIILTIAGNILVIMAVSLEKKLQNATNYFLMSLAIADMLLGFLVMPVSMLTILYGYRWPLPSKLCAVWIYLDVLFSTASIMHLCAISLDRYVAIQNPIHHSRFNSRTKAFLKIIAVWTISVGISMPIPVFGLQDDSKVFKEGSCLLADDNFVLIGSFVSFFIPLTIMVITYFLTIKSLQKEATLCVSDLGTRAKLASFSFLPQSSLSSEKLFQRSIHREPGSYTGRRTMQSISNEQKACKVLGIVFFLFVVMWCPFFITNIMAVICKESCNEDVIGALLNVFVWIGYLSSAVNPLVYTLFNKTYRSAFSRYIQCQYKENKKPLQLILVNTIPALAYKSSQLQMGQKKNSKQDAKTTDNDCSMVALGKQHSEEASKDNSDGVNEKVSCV
In assay [2] the target is T1, 5-HT2A. Description: HTRF IP-One antagonist assay, 5-HT2A.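 Also: clonal line with low receptor density (about 50–70 fmol/mg), 10-point dose-response from 10 µM in 5-fold steps, HTRF detection after 1 hr, triplicate points.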 Type of assay: cell-based. As to conditions: HEK293 cells stably expressing receptor, inositol phosphate accumulation, 80 nM 5-HT in Assay Buffer.
Assay [3] deals with 5-HT2B (Homo sapiens (Human), UniProt P41595). Description: HTRF IP-One antagonist assay, 5-HT2B.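 Also: clonal HEK293 line with low 5-HT2B expression (estimated 150-200 fmol/mg by radioligand binding), IP-One HTRF readout, 10-point curves from 10 µM in 5-fold steps, triplicate points.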 It is filed as cell-based. The settings on record: HEK293 cells stably expressing receptor, inositol phosphate accumulation, 80 nM 5-HT in Assay Buffer. Background: In TR-FRET formats the signal depends on donor and acceptor labels being close together.
5-HT2B, sequence (P41595 whole entry): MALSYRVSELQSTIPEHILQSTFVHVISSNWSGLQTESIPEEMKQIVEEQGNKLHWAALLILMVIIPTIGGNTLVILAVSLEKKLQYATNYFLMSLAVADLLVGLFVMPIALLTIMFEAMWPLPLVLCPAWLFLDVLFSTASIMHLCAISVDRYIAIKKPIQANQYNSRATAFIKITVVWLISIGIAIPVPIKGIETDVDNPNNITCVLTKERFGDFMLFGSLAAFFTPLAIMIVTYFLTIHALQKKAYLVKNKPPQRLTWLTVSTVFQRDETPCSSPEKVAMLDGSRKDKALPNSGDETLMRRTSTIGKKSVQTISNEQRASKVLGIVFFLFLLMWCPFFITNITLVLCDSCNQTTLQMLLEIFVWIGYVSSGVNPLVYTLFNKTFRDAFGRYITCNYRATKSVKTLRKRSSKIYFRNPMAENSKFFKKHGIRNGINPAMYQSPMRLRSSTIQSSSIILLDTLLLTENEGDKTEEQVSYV
For assay [4], the target named is 5-HT2C (Homo sapiens (Human), UniProt P28335). Description: HTRF IP-One antagonist assay, 5-HT2C.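 Also: clonal HEK293 line with low 5-HT2C density (10–20 fmol/mg), HTRF detection of IP-One, 10-point dose curves from 10 µM in 5-fold steps, triplicate points.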 Type of assay: cell-based. As to conditions: HEK293 cells stably expressing receptor, inositol phosphate accumulation, 80 nM 5-HT in Assay Buffer.
5-HT2C, sequence (P28335 33-458): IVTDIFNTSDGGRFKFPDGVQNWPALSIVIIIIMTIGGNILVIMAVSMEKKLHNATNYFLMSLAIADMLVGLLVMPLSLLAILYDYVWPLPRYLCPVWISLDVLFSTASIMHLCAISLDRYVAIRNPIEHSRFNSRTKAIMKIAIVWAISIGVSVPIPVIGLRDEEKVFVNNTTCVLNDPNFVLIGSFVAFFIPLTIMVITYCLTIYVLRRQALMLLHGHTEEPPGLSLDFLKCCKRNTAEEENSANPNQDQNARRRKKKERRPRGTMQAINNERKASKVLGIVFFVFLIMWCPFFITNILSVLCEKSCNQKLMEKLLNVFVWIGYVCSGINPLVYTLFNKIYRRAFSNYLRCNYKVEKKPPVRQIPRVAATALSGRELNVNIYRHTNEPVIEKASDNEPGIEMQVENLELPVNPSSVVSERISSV

Several values for one entry are separate records, joined by “and”; a condition that tells them apart may be missing. Identical values can stand only once.

Consider `CCOC1CC1C(=O)Nc1ccc(OC[C@H]2CCCCN2)c(-c2c(C)ncnc2C)c1` (stereo partly drawn) [Compound 447, N-(3-(4,6-dimethylpyrimidin-5-yl)-4-(((R)-piperidin-2-yl)methoxy)phenyl)-2-ethoxycyclopropane-1-carboxamide], for which, in assay [1], the Ki (usually the equilibrium dissociation constant of an inhibitor or competing ligand from its target) is 7.08 nM and 19.6 nM. The IC50 (as a rule, the concentration that inhibits the measured activity by half) stood at 9.05 nM in assay [2], 100000 nM in assay [3] and 100000 nM in assay [4].
Take `COCCNCCOc1ccc(NC(=O)C2(F)CC2)cc1-c1c(C)ncnc1C` [Compound 453, N-(3-(4,6-dimethylpyrimidin-5-yl)-4-(2-((2-methoxyethyl)amino)ethoxy)phenyl)-1-fluorocyclopropane-1-carboxamide]: in assay [1], the Ki was 4.76 nM. In addition, the IC50 in assay [2] is 4.84 nM; in assay [3], 100000 nM; in assay [4] it was 100000 nM.
